What all share (type): in vivo, human
Data set [1] concerns subjects with uterine fibroids. In words: Study 15788: amenorrhea, 3-month treatment (Example 4). The method, then:
A randomized, parallel-group, double-blind, placebo-controlled, multi-center study to assess efficacy of different doses of Compound 1 where primary efficacy variable is Amenorrhea, in subjects with uterine fibroids over a 3-month treatment [1×12 weeks/84 days]
Doses: 0.5 mg, 1 mg, 2 mg, or 4 mg once daily
Route of administration: Oral
Duration of treatment: 1×12 weeks (84 days)
Women, 18 to 50 years old, with uterine fibroids documented by transvaginal or abdominal ultrasound at screening with at least 1 uterine fibroid with largest diameter 3 cm and Heavy Menstrual Bleeding (HMB) 80 ml were eligible for enrolment in the study.
Eligible subjects were equally randomized to one of the treatment groups (Placebo, 0.5 mg, 1 mg, 2 mg, or 4 mg Compound 1). Treatment was started during the first week of the menstrual cycle following randomization. The treatment period consisted of 12 weeks (84 days) of daily tablet intake.
Efficacy Measurement: • daily documentation of bleeding intensity (electronic diary or eDiary) • Menstrual Pictogram MP (electronic diary or eDiary) • collection of sanitary products for analysis of menstrual blood loss with alkaline hematin (AH) method
Onset of amenorrhea is defined by the first day for which the menstrual blood loss (assessed by MP) for all subsequent 28-day periods up to the end of the treatment period is less than 2 ml.
The primary objective estimates the dose-response curve based on the primary endpoint women with amenorrhea by dose.

Data set [2] deals with subjects with uterine fibroids. In words: Study 15788: endometrial biopsies, PAEC and histology (Example 3). The method, then: A randomized, parallel-group, double-blind, placebo-controlled, multi-center study to assess efficacy of different doses of Compound 1 where primary efficacy variable is Endometrium thickness and secondary efficacy variable is PAEC in subjects with uterine fibroids over a 3-month treatment [1×12 weeks/84 days]
The first endometrial biopsy was performed on Day 9+/−2 of the first or second menstrual cycle after screening visit 1, i.e. at screening visit 2.
Biopsy was determined by randomization. This means that subjects were randomized to the time point of the second biopsy and were informed about the group they are in, directly after randomization followed by stratification by dose group.
If a subject was randomized to this time point, the biopsy was scheduled on Day 9+/−2 of the first menstrual cycle after the treatment visit 2 (corresponding to Visit 5), i.e. during the last 4 weeks of study drug treatment. If no menstrual bleeding occurs between the treatment visit 2 (Visit 5) and the end of treatment (EoT) visit (Visit 6), the biopsy was performed at the end of treatment (EoT) visit (Visit 6).
If a subject was randomized to this time point, the biopsy was scheduled on Day 9+/−2 of the first menstrual cycle after the end of treatment. If no menstrual bleeding occurs until 12 weeks after end of treatment, i.e. until the follow-up visit 2 (Visit 8), a biopsy was performed at the follow-up visit 2 (Visit 8) and induction of bleeding was considered.
If a subject was randomized to this time point, the biopsy was scheduled on Day 9+/−2 of the second menstrual cycle after the end of treatment. If no menstrual bleeding occurs until 12 weeks after end of treatment, i.e. until the follow-up visit 2 (Visit 8), a biopsy was performed at the follow-up visit 2 (Visit 8) and induction of bleeding was considered.
If a subject is randomized to this time point, the biopsy was scheduled on Day 9+1-2 of the third menstrual cycle after end of treatment. If no menstrual bleeding occurred until 12 weeks after end of treatment, i.e. until the follow-up visit 2 (Visit 8), a biopsy was performed at the follow-up visit 2 (Visit 8) and induction of bleeding was considered.
The third endometrial biopsy was performed at the follow-up visit 3 (Visit 9), which was scheduled on Day 9+/−2 of the menstrual cycle which started following Week 20 after the end of treatment. If no bleeding episode occurred, Visit 9 was performed 24 weeks after end of treatment, i.e. Visit 9 took place 21 to 24 weeks after the end of treatment in all subjects. If the second endometrial biopsy was performed less than 6 weeks before the scheduled date of the third endometrial biopsy and pathological findings were absent, the third endometrial biopsy was not required.
After the end of treatment, subjects were followed up for 21 to 24 weeks (Follow-up period). […] In case of findings that require further follow-up, additional visits were scheduled according to normal standard practice.
Efficacy Measurement: • endometrial biopsies • cervical smear • transvaginal ultrasound TVU (endometrial thickness, ovaries)
FIG. 2: PAEC in biopsy after 1st/2nd/3rd bleeding episodes (menses). Pharmacodynamic effecs on the endometrium. Percentage of subjects with PAEC.

For data set [3], the system named is uterine fibroids. Nature of the data set: Study 15788: change in volume of largest fibroid by MRI and TVU (Example 8). How it is done:
A randomized, parallel-group, double-blind, placebo-controlled, multi-center study to assess efficacy of different doses of Compound 1 where secondary efficacy variable is the change in volume of the largest fibroid in subjects wherein treatment is of 3 months [1×12 weeks (84 days)]. Doses: 0.5 mg, 1 mg, 2 mg, or 4 mg once daily Route of administration: Oral Duration of treatment: 1×12 weeks (84 days) Women, 18 to 50 years old, with uterine fibroids documented by transvaginal or abdominal ultrasound at screening with at least 1 uterine fibroid with largest diameter 3 cm and heavy menstrual bleeding (HMB) 80 ml were be eligible for enrolment in the study. The secondary efficacy variable is the percent change in volume of the largest fibroid compared to baseline (measured by MRI and TVU) • MRI: Magnetic Resonance Imaging • TVU: Transvaginal/abdominal ultrasound Ultrasound examination was performed consistent with the schedule of procedures (Table 1). For each subject, the most appropriate ultrasound method (transvaginal or abdominal) was used depending on fibroid location and this method was consistently used throughout the study. The same ultrasound machine (per site) should be used throughout the study. The 3 largest fibroids were identified during the screening period. […]

Data set [4] concerns patient diagnosed with Uterine Fibroids. In words: Long term treatment of patients with Compound 1, summary findings. The text has this: Compound 1 is a potent Selective Progesterone Receptor Modulator (SPRM) and more particularly a competitive Progesterone Receptor (PR) antagonist creating alternatives for the treatment of Uterine Fibroids. […] Amenorrhea corresponds to the major objective of the treatment i.e. control of excessive uterine bleeding.

“Also recorded” adds a separate entry of the source.

Take `C[C@]12C[C@H](c3ccc(S(C)(=O)=O)cc3)C3=C4CCC(=O)C=C4CC[C@H]3[C@@H]1CC[C@@]2(O)C(F)(F)C(F)(F)F` [Compound 1, (11β,17β)-17-Hydroxy-11-[4-(methylsulphonyl)phenyl]-17-(pentafluoroethyl)estra-4,9-dien-3-one]: the “Amenorrhea (<2 ml) at EoT (%) 12 Weeks” value in data set [1] (0.5 mg once daily oral) came out at 66.63%. The “Amenorrhea (<2 ml) at EoT (%) 12 Weeks” value in data set [1] (1 mg once daily oral) was 87.09%. Moreover, the “Amenorrhea (<2 ml) at EoT (%) 12 Weeks” value in data set [1] (2 mg once daily oral) came to 91.65%. In addition, in data set [1] (4 mg once daily oral), the “Amenorrhea (<2 ml) at EoT (%) 12 Weeks” value worked out at 89.81%. Also, in data set [1] (0.5-4 mg once daily, 12 weeks), the Induction of amenorrhea entry is “dose-dependent induction of amenorrhea”. Also, in data set [1] (0.5-4 mg once daily, 12 weeks, FIG. 3), the Heavy menstrual bleeding entry was “reduced quickly and sustainably”. Also, the “Subjects achieving amenorrhea during treatment” value in data set [1] (12 weeks, FIG. 3) was “Most subjects even achieved amenorrhea already during treatment”. Also, in data set [2] (0.5-4 mg once daily, 12 weeks), the “Treatment-emergent critical endometrial findings” value was “No treatment-emergent critical endometrial findings occurred”. For the same compound, the “Resolution of PAECs after bleeding episodes” value in data set [2] (break / follow-up after end of treatment) is “already resolved after one bleeding; also recorded: resolve PAECs already after one bleeding”. The “Endometrial histology in biopsies at the end of follow-up” value in data set [2] (end of follow-up, all available samples) is listed as “benign endometrial histology changes (PAEC)”. In addition, the Cases of hyperplasia entry in data set [2] (endometrial biopsies) is reported as “no cases of hyperplasia”. Moreover, in data set [2] (follow-up after 12 weeks treatment, FIG. 2), the PAECs during follow-up entry is “returned to background level”. Moreover, in data set [3] (0.5-4 mg once daily, 12 weeks, MRI and TVU), the “Fibroid size during treatment” value is “dose-dependent reduction in fibroid size”. The “Effect on fibroid size during follow-up” value in data set [3] (follow-up after 12 weeks treatment) is given as “partially sustained during follow-up”. Further, in data set [4], the Amenorrhea entry is “observed at early stage and with high intensity”; the “Endometrial hypertrophy (TEAE)” value is listed as “no endometrial hypertrophy was reported”; the Major safety findings entry is “no major safety findings were reported”; the Ovulation inhibition entry is “ovulation inhibition was observed”. Further, in data set [4], the Pelvic pain entry is recorded as “found to be reduced” and the Uterine fibroids size result is “clearly reduced”.
